One assay concerns the target T1, human SGLT1 (Homo sapiens, UniProt P13866).
T1 construct: expressed in transfected cells; host or cells: CHO-K1
T1 sequence (P13866 1-664): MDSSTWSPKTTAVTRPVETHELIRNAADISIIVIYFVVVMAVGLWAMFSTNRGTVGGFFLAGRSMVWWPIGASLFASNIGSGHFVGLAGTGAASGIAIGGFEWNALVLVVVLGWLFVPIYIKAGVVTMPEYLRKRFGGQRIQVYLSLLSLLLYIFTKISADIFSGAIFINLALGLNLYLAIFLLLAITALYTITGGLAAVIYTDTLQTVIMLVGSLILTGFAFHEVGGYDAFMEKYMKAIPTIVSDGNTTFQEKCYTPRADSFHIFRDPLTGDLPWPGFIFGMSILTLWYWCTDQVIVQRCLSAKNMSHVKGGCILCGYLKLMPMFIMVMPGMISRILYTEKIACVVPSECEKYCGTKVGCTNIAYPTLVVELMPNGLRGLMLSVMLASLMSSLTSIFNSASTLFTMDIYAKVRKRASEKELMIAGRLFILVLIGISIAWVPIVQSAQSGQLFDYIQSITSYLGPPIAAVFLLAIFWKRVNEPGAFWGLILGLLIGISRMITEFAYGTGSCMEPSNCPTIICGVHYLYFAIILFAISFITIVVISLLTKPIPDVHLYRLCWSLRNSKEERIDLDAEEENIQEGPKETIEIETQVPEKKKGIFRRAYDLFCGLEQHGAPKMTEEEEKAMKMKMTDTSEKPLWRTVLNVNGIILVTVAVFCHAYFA
The assay can be described thus: Inhibition test for sodium-dependent sugar uptake in CHO-K1 cells stably expressing human SGLT1. The format is cell-based. The settings on record: [14C]methyl α-D-glucopyranoside uptake, 37° C., 30 minutes, read-out: human SGLT1 IC50 (50% inhibition of sugar uptake). Here is the method:
(§1) A human SGLT1 sequence (NM_000343) was reverse-transcribed and amplified from human small intestine mRNA, and then introduced into pCMV-tag5A (Stratagene). Likewise, a human SGLT2 sequence (NM_003041) was prepared from human kidney mRNA in the same manner and introduced into pcDNA3.1+hygro (Invitrogen). The individual cloned sequences were confirmed to be identical with the sequences reported.
(§2) The human SGLT1 and human SGLT2 expression vectors were each transfected into CHO-K1 cells using lipofectamine 2000 (Invitrogen). The cells were cultured in the presence of 500 μg/mL geneticin (SGLT1) or hygromycin B (SGLT2) to select resistant strains and specific activity of sugar uptake in the system shown below was used as an indicator to obtain SGLT-expressing cells.
(§3) The cells stably expressing human SGLT1 or human SGLT2 were used for an inhibition test of sodium-dependent glucose uptake activity.
(§4) Pretreatment buffer (140 mM choline chloride, 2 mM KCl, 1 mM CaCl2, 1 mM MgCl2, 10 mM HEPES/5 mM Tris, pH 7.4) was added in a volume of 200 μL to human SGLT1-expressing cells and 2 mL to human SGLT2-expressing cells, followed by incubation for 20 minutes. The pretreatment buffer was removed and replaced with uptake buffer containing a test compound (1 mM methyl α-D-glucopyranoside (containing [^14C]methyl α-D-glucopyranoside), 145 mM NaCl, 2 mM KCl, 1 mM CaCl2, 1 mM MgCl2, 10 mM HEPES/5 mM Tris, pH 7.4) in a volume of 75 μL for SGLT1 and 200 μL for SGLT2. Uptake reaction was performed at 37° C. for 30 minutes (SGLT1) or 1 hour (SGLT2). After the reaction, the cells were washed twice with washing buffer (10 mM methyl α-D-glucopyranoside, 140 mM choline chloride, 2 mM KCl, 1 mM CaCl2, 1 mM MgCl2, 10 mM HEPES/5 mM Tris, pH 7.4) in a volume of 200 μL for SGLT1 and 2 mL for SGLT2, and then dissolved in a 0.2 M NaOH solution (75 μL for SGLT1 and 400 μL for SGLT2). A liquid scintillator (Perkin Elmer) was added and mixed well with each sample, followed by measurement of radioactivity using a microBETA for SGLT1 or a liquid scintillation counter for SGLT2 (Beckman Coulter). For the control group, uptake buffer containing no test compound was prepared. Moreover, another uptake buffer containing choline chloride instead of NaCl was also prepared for basal uptake.
(§5) For determination of IC50 values, test compounds prepared at 6 appropriate concentrations were used and their concentrations required for 50% inhibition of the amount of sugar uptake (IC50 values) were calculated relative to the amount of sugar uptake in the control group (100%).

The target in a further assay is T2, human SGLT2 (Homo sapiens, UniProt P31639).
T2 construct: expressed in transfected cells; host or cells: CHO-K1
T2 sequence (P31639 1-672): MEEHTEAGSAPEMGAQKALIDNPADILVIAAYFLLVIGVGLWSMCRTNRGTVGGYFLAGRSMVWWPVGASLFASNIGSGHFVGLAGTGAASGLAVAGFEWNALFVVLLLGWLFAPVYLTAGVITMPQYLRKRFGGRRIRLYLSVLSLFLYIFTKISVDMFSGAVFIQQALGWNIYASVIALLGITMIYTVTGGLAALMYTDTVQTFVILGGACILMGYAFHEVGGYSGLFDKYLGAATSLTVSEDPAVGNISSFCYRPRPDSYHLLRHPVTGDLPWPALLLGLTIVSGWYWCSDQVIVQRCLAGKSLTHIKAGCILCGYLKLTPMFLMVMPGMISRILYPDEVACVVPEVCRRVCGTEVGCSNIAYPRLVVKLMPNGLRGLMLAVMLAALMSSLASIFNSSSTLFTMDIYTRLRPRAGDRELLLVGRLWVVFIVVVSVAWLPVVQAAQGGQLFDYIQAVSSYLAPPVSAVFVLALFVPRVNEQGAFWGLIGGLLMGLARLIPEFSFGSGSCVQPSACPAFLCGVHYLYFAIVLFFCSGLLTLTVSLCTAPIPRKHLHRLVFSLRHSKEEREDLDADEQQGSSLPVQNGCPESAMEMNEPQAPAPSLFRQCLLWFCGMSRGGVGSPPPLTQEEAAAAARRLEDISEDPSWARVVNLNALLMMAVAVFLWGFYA
Kind of assay: Inhibition test for sodium-dependent sugar uptake in CHO-K1 cells stably expressing human SGLT2. The settings on record: [14C]methyl α-D-glucopyranoside uptake, 37° C., 1 hour, read-out: human SGLT2 IC50 (50% inhibition of sugar uptake). The format is cell-based. Here is the method: as §1, §2, §3, §4, §5

Assay [1] relates to Streptozotocin-induced diabetic model rats. Kind of assay: Oral glucose tolerance test in streptozotocin-induced diabetic model rats (hypoglycemic effect). The format is in vivo, rat. The settings on record: STZ diabetic SD/IGS rats; 1 mg/kg oral; glucose 2 g/kg oral; decrease in blood glucose ΔAUC 0-1 h relative to control group. As to the method: SD/IGS rats at 7 weeks of age (male, Charles River Laboratories Japan Inc.) were fasted for about 16 hours and then injected with 50 mg/kg streptozotocin (STZ) via the tail vein under ether anesthesia to prepare diabetic model rats. Similarly, another group of SD/IGS rats was injected with 1.25 mmol/L citric acid in physiological saline (1 mL/kg) via the tail vein under ether anesthesia to prepare normal control rats. At one week (8 weeks of age) after injection of STZ or 1.25 mmol/L citric acid in physiological saline, the rats were provided for an oral glucose tolerance test.
After the rats were fasted for about 16 hours, drug groups were each orally administered with a drug (1 mg/kg) suspended in a 0.5% aqueous carboxymethylcellulose (CMC) solution, while the control group was orally administered with a 0.5% aqueous CMC solution alone. At 5 minutes after drug administration, a glucose solution (2 g/kg) was orally administered and blood was collected at 5 points in total: before drug administration (0 hour) and 0.25, 0.5, 1 and 2 hours after oral administration.
Blood was collected from the orbital venous sinus of each rat under ether anesthesia using a heparin-coated blood collection tube, and centrifuged to separate plasma. Plasma glucose concentrations were quantified by measurement with a Glucose CII-Test Wako (Wako Pure Chemical Industries, Ltd., Japan). To determine the intensity of hypoglycemic effect, blood glucose levels measured between 0 and 1 hour in each drug group were analyzed by the trapezoidal method to calculate the area under the blood glucose-time curve (AUC), followed by basal subtraction to obtain a blood glucose increment (ΔAUC).

Turning to `Cc1cc(O)c([C@@H]2S[C@H](CO)[C@@H](O)[C@H](O)[C@H]2O)cc1Cc1ccc(CCCC(=O)NC(C)(C)CO)cc1` [Example 1, (1S)-1,5-anhydro-1-[2-hydroxy-5-(4-{4-[(2-hydroxy-1,1-dimethylethyl)amino]-4-oxobutyl}benzyl)-4-methylphenyl]-1-thio-D-glucitol], the IC50 at human SGLT1 was 0.011 µM; at human SGLT2, 0.017 µM. In addition, the “STZ rat-OGTT (2 g/Kg) % inhibition ΔAUC0-1 h (mgh/dL) @1 mg/Kg” value in assay [1] was 70.4 % inhibition.

For the compound `Cc1cc(O)c([C@@H]2S[C@H](CO)[C@@H](O)[C@H](O)[C@H]2O)cc1Cc1ccc(CCCC(=O)NC(C)(CO)CO)cc1` [Example 2, (1S)-1,5-anhydro-1-{2-hydroxy-5-[4-(4-{[2-hydroxy-1-(hydroxymethyl)-1-methylethyl]amino}-4-oxobutyl)benzyl]-4-methylphenyl}-1-thio-D-glucitol], the IC50 turned out to be 0.022 µM at human SGLT1 and 0.021 µM at human SGLT2. For the same compound, the “STZ rat-OGTT (2 g/Kg) % inhibition ΔAUC0-1 h (mgh/dL) @1 mg/Kg” value in assay [1] is reported as 65.4 % inhibition.

As for `Cc1cc(O)c([C@@H]2S[C@H](CO)[C@@H](O)[C@H](O)[C@H]2O)cc1Cc1ccc(CCCC(=O)NC(CO)(CO)CO)cc1` [Example 3, (1S)-1,5-anhydro-1-{2-hydroxy-5-[4-(4-{[2-hydroxy-1,1-bis(hydroxymethyl)ethyl]amino}-4-oxobutyl)benzyl]-4-methylphenyl}-1-thio-D-glucitol], the IC50 on human SGLT1 was determined as 0.035 µM; at human SGLT2 it was 0.031 µM. In addition, in assay [1], the “STZ rat-OGTT (2 g/Kg) % inhibition ΔAUC0-1 h (mgh/dL) @1 mg/Kg” value is 60.8 % inhibition.

On to `Cc1cc(O)c([C@@H]2S[C@H](CO)[C@@H](O)[C@H](O)[C@H]2O)cc1Cc1ccc(CCCC(=O)NC(C)(C)C(N)=O)cc1` [Example 4, (1S)-1-[5-(4-{4-[(2-amino-1,1-dimethyl-2-oxoethyl)amino]-4-oxobutyl}benzyl)-2-hydroxy-4-methylphenyl]-1,5-anhydro-1-thio-D-glucitol], for which the IC50 at human SGLT1 was 0.047 µM; at human SGLT2, 0.049 µM. Besides, the “STZ rat-OGTT (2 g/Kg) % inhibition ΔAUC0-1 h (mgh/dL) @1 mg/Kg” value in assay [1] was 66.5 % inhibition.

With `Cc1cc(CCCC(=O)NC(C)(C)CO)ccc1Cc1cc([C@@H]2S[C@H](CO)[C@@H](O)[C@H](O)[C@H]2O)c(O)cc1C` [Example 5, (1S)-1,5-anhydro-1-[2-hydroxy-5-(4-{4-[(2-hydroxy-1,1-dimethylethyl)amino]-4-oxobutyl}-2-methylbenzyl)-4-methylphenyl]-1-thio-D-glucitol], the figures for the IC50 on human SGLT1 and on human SGLT2 were 0.02 µM and 0.099 µM, respectively.

`Cc1cc(O)c([C@@H]2S[C@H](CO)[C@@H](O)[C@H](O)[C@H]2O)cc1Cc1ccc(CCCNC(=O)NC(C)(C)CO)cc1` [Example 6, (1S)-1-{5-[4-(3-{[(2-hydroxy-1,1-dimethylethyl)aminocarbonyl]amino}propyl)benzyl]-2-hydroxy-4-methylphenyl}-1,5-anhydro-1-thio-D-glucitol]: the IC50 came to 0.022 µM on human SGLT1 and 0.032 µM at human SGLT2. In addition, the “STZ rat-OGTT (2 g/Kg) % inhibition ΔAUC0-1 h (mgh/dL) @1 mg/Kg” value in assay [1] is listed as 69.2 % inhibition.

Take `Cc1cc(O)c([C@@H]2S[C@H](CO)[C@@H](O)[C@H](O)[C@H]2O)cc1Cc1ccc(CCCCC(=O)NC(C)(C)CO)cc1` [Example 8, (1S)-1,5-anhydro-1-[2-hydroxy-5-(4-{5-[(2-hydroxy-1,1-dimethylethyl)amino]-5-oxopentyl}benzyl)-4-methylphenyl]-1-thio-D-glucitol]: the figures for the IC50 at human SGLT1 and on human SGLT2 were 0.079 µM and 0.038 µM, respectively.

The values are drawn from patent US8115017B2, “C-phenyl 1-thioglucitol compound” (Taisho Pharmaceutical Co., Ltd, priority 2006, dated 2012).
